SMILES strings stand for the structures.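 Dose response: 5 concentrations. Exposure: 48 h. Format: 96-well plates. Endpoint: linear interpolation; highest concentration if not reached. GI50 = concentration required for 50% inhibition of growth. TGI marks complete inhibition of growth.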 Bounds are passed on as bounds.

Common to all, as to assay: inhibition of tumour cell growth, NCI panel, 48 h
Experiment [1] concerns OVCAR-8 ovarian.
In experiment [2] the test system is IGROV1 ovarian.
For experiment [3], the system named is ACHN renal.
Experiment [4] relates to NCI-H460 lung.
Experiment [5] deals with HOP-92 NSCLC.
Experiment [6] deals with UACC-257 melanoma.
Experiment [7] deals with KM12 colon.
In experiment [8] the test system is NCI-H226 lung.
Experiment [9] has as its system HL-60(TB) leukemia.
The subject of experiment [10] is RXF 393 renal.

Turning to `OC[C@H](O)[C@@H](OCc1ccccc1)[C@H](NCc1ccccc1)c1cccs1`, the TGI in experiment [1], in experiment [2], in [3], in experiment [4], in [5] and in experiment [6] was greater than 100 µM throughout. In addition, the TGI in experiment [7], in experiment [8] and in [9] was greater than 100 µM throughout.
Regarding `Cc1ccc(C2=C(c3ccccc3)C(O)(c3ccccc3)C(c3ccccc3)=C2c2ccc(C)cc2)cc1`, the TGI in [1], in [2], in experiment [3], in [4], in experiment [6] and in experiment [10] was greater than 100 µM throughout. In addition, the TGI in [7] and in experiment [8] was greater than 100 µM in each case.
Take `O=C(N/N=C/c1ccc(O)cc1)NNCCO`: the TGI in experiment [1], in experiment [2], in [4], in experiment [6], in experiment [7] and in experiment [8] was greater than 100 µM each time. The TGI in experiment [9] is greater than 100 µM.
Regarding `CCCCCCCCC/C=C1/CC(CO)(COC(=O)C2CCCCC2)OC1=O` (stereo not drawn), the TGI in experiment [1], in experiment [2], in experiment [3], in [4], in experiment [5] and in [6] was greater than 100 µM each time. The TGI in experiment [10], in experiment [7] and in [8] was greater than 100 µM in each case.
With `CC(C)C(N=C1CC2CCC1(C(=O)Nc1ccccc1O)C2(C)C)c1ccccc1` (stereo not drawn), the TGI in experiment [1], in experiment [2], in [3], in experiment [4], in experiment [5] and in experiment [6] was greater than 10 µM each time. For the same compound, the TGI in experiment [7], in experiment [8] and in experiment [9] was greater than 10 µM throughout.
For `O=C(O)C(=Cc1ccc(-c2ccc([N+](=O)[O-])cc2)o1)C(=O)O`, the TGI in experiment [1], in experiment [2], in [3], in experiment [4], in experiment [6] and in experiment [10] was greater than 100 µM in each case. In addition, the TGI in experiment [7] and in [8] was greater than 100 µM in each case.
Take `O/N=C1/C(=C/c2ccc(Br)cc2)CCCC1C(NO)c1ccc(Br)cc1` (stereo not drawn): the TGI amounted to 31.5 µM in [1]; 32.4 µM in [2]; 31.2 µM in experiment [3]; 26.5 µM in [5]; 33.3 µM in [6]; 31.1 µM in experiment [10]. Further, the TGI was 38.3 µM in experiment [7] and greater than 100 µM in experiment [9].
For `COc1ccccc1-c1nc[nH]c1-c1ccccc1OC`, the TGI in experiment [2] is greater than 100 µM; in experiment [3], greater than 100 µM; in experiment [4], greater than 100 µM; in experiment [5], greater than 100 µM; in experiment [6], greater than 100 µM; in experiment [10], 87.1 µM. Moreover, the TGI in [7] is 28.3 µM.
As for `CN1C(=O)c2c(c3c4ccccc4n(C)c3c3c2c2ccccc2n3C)C1=O`, the TGI in [1], in [2], in [3], in [4], in experiment [5] and in experiment [6] was greater than 100 µM throughout. Also, the TGI in experiment [7] and in experiment [8] was greater than 100 µM in each case.
As to `O=C(NC12CC3CC(CC(C3)C1)C2)n1cnc2c(Cl)ncnc21`, the TGI was 66.4 µM in experiment [1]; 35.4 µM in [2]; 50.8 µM in experiment [3]; 75.8 µM in experiment [4]; greater than 100 µM in experiment [5]; greater than 100 µM in experiment [6]. In addition, the TGI was greater than 100 µM in experiment [10], greater than 100 µM in experiment [7] and 16.9 µM in experiment [9].
As for `Cc1ccc2c(=O)cc(-c3ccccc3)[nH]c2n1`, the TGI in experiment [1] is 0.853 µM; in experiment [2] it was greater than 100 µM; in experiment [3], greater than 100 µM; in experiment [4], greater than 100 µM; in experiment [5] it was greater than 55.2 µM; in [6], greater than 43.4 µM. Further, the TGI in experiment [10] came to 0.486 µM; in [7] it was 45.7 µM; in [8], 9.69 µM.
`C#CCn1c(=O)c2cc(OC)c(OC)cc2n(CC#C)c1=O`: the TGI in experiment [1], in experiment [2], in experiment [3], in experiment [4], in [5] and in experiment [6] was greater than 10 µM throughout. Further, the TGI in experiment [10], in experiment [7] and in [8] was greater than 10 µM in each case.
In the case of `CCOC(=O)C1=C(C)NC(c2ccccc2)=C(C(=O)OCc2ccccc2)C1C#Cc1ccccc1` (stereo not drawn), the TGI in experiment [1], in [2], in experiment [6], in experiment [10], in experiment [7] and in experiment [8] was greater than 100 µM throughout. The TGI in experiment [9] was greater than 100 µM.
For the compound `COc1cccc2c1CCc1sc(CN3CCN(C)CC3)nc1-2`, the TGI in [1], in experiment [2], in experiment [3], in experiment [4], in [6] and in experiment [10] was greater than 100 µM in each case. For the same compound, the TGI in experiment [7] and in experiment [8] was greater than 100 µM each time.
`COc1ccc(CNCCN2C(=O)c3ccc4c5c(ccc(c35)C2=O)C(=O)N(CCNCc2ccc(OC)c(OC)c2OC)C4=O)c(OC)c1OC`: the GI50 is 0.16 µM in [1], 1.56 µM in [5], 0.113 µM in experiment [6] and 0.279 µM in experiment [10]. Moreover, the TGI was 0.648 µM in [1], 3.44 µM in experiment [5], 0.303 µM in experiment [6] and 1.42 µM in [10].

Source of the values: PubChem BioAssay (NCI).
